Data on 6 molecules can be found in US8263044B2, “Stilbene like compounds as novel HDAC inhibitors” (Orchid Research Laboratories Limited, priority 2005, dated 2012).

One may read the IC50 as the concentration that inhibits the measured activity by half. A higher IC50 goes with a need for much substance.

The test system of assay [1] is NCIH460, HCT116, MDAMB231/U251. Nature of the assay: Anti-cancer screen, mean GI50 over the cell lines. Type of assay: cell-based. As to conditions: mean over the three cell lines; no unit in table. How it is done:
(§1) Experimental drugs are screened for anti-cancer activity in three cell lines for their GI50, TGI and LC50 values (using five concentrations for each compound). The cell lines are maintained in DMEM containing 10% fetal bovine serum. 96 well micro titer plates are inoculated with cells in 100 μL for 24 h at 37° C., 5% CO2, 95% air and 100% relative humidity. 5000 HCT 116 cells/well, 5000 NCIH 460 cells/well and 5000 U251 cells/well are plated. A separate plate with these cell lines is also inoculated to determine cell viability before the addition of the compounds (T0) (See Table I).
(§2) Following 24-hour incubation, experimental drugs are added to the 96 well plates. Each plate contains one of the above cell lines and the following in triplicate: five different concentrations (0.01, 0.1, 1, 10 and 100 μM) of four different compounds, appropriate dilutions of a cytotoxic standard and control (untreated) wells. Compounds are dissolved in DMSO to make 20 mM stock solutions on the day of drug addition and frozen at −20° C. Serial dilutions of these 20 mM stock solutions are made in complete growth medium such that 100 μL of these drug solutions in medium, of final concentrations equaling 0.01, 0.1, 1, 10 and 100 μM can be added to the cells in triplicate. […] (See Table I).
(§3) For T0 measurement, 24 hours after seeding the cells, 10 μL of 3-(4,5-Dimethyl-2-thiazolyl)-2,5-diphenyl-2H-tetrazolium (MTT) solution per well is added and incubation carried out for 3 hours at 37° C., 5% CO2, 95% air and 100% relative humidity, protected from light. Cells incubated with compounds for 48 hours are treated similarly except with the addition of 20 μL MTT solution per well and a subsequent incubation under the same conditions. After 3 hours of MTT incubation, well contents are aspirated carefully followed by addition of 150 μL DMSO per well. Plates are agitated to ensure solution of the formazan crystals in DMSO and absorbance read at 570 nm. (See Table I).
Percent growth is calculated for each compound's concentration relative to the control and zero measurement wells (T0; viability right before compound addition). […]

Assay [2] concerns MDAMB231/U251. Nature of the assay: cells. The settings on record: 48 h, read-out: MDAMB231/U251 LC50.
The next assay has as its system NCIH 460 cells. Briefly: cells. As to conditions: Homo sapiens, NCI-H460, 48 h; for GI50: read-out: NCIH460 GI50; for CC50: read-out: NCIH460 LC50. How it is done:
as §1, §2, §3
(§4) Percent growth is calculated for each compound's concentration relative to the control and zero measurement wells (T0; viability right before compound addition).
(§5) If a test well's O.D. value is lower than the T0 measurement for that cell line, then, % Growth=(test−zero)/zero×100

The test system of the next assay is HCT 116 cells. Nature of the assay: cells. As to conditions: Homo sapiens, HCT-116, 48 h; for GI50: read-out: HCT116 GI50; for CC50: read-out: HCT116 LC50. The method, then:
as §1, §2, §3, §4, §5

In assay [3] the test system is MDAMB231/U251. Briefly: cells. As to conditions: 48 h, read-out: MDAMB231/U251 GI50. The method, then:
as §1, §2, §3, §4, §5

For assay [4], the system named is HDAC activity (Mouse Liver Extract). Nature of the assay: Histone Deacetylase (HDAC) Inhibition Assay using Boc-Lys (Ac)-AMC Substrate. Type of assay: biochemical. The settings on record: mouse liver enzyme; for HDAC Inhibition 1 μM: inhibitor at 1 μM; for HDAC Inhibition 1 μM / HDAC Inhibition 10 μM: in % (unit assumed); for HDAC Inhibition 10 μM: inhibitor at 10 μM. The method, then:
Histone Deacetylase (HDAC) Inhibition Assay using Boc-Lys (Ac)-AMC Substrate: Inhibition of HDAC has been implicated to modulate transcription and to induce apoptosis or differentiation in cancer cells. The fluorometric assay provides a fast and fluorescence based method that eliminates radioactivity, extractions or chromatography, as used in traditional assays. The assay based on two steps. First, the HDAC fluorometric substrate, which comprises an acetylated lysine side chain, is incubated with a sample containing HDAC activity (Mouse Liver Extract). Deacetylation of the substrate sensitizes the substrate, in the second step; treatment with the Trypsin stop solution produces a fluorophore that can be easily analyzed using fluorescence plate reader.
Assay was done in 96 well black microplate and total volume of the assay is 100 ul. Mouse liver enzyme is diluted 1:6 with HDAC buffer. Enzyme cocktail made of 10 ul of diluted enzyme and 30 ul of HDAC buffer. 40 ul of enzyme cocktail dispensed into each well. 10 ul of different concentrations of inhibitor added in to each well, except enzyme control well. Preincubated the plate at 30° C. for 5 minutes. The HDAC reaction is started by adding 50 ul of HDAC substrate (Boc-Lys (Ac)-AMC Substrate) solution. Incubated the plate at 30° C. for 30 minutes. Adding 100 ul of Trypsin stop solution stops the reaction. The plate is incubated again at 30° C. for 20-30 minutes. The release of AMC is monitored by measuring the fluorescence at excitation wavelength of 365 or 360 nm and emission wavelength of 440 or 460 nm. Buffer and substrate alone kept for blank subtraction. (Dennis Wegener et al, Anal. Biochem, 321, 2003, 202-208).

With `Cc1ncsc1/C=C(/C(=O)NCCCCCC(=O)NO)c1cccs1` [Example 8, [(2Z)-3-(4-Methyl-1,3-thiazol-5-yl)-2-(2-thienyl))-N-[6-(hydroxyamino)-6-oxohexyl]acrylamide], the GI50 in assay [1] was 9.7 µM; in the assay on NCIH 460 cells, 15 µM; with HCT 116 cells, 8 µM; with MDAMB231/U251 [3], 6 µM. Also, the CC50 in the assay on MDAMB231/U251 [2] was 96 µM; in the assay with NCIH 460 cells it was over 100 µM; with HCT 116 cells it was over 100 µM. In addition, the “HDAC Inhibition 1 μM” value in assay [4] was 77.63. Also, the “HDAC Inhibition 10 μM” value in assay [4] was 99.67. This molecule registered a half-inhibitory concentration (IC50) in assay [4] of 0.55 µM.
`COc1cc(/C=C(\C(=O)NCCCCCC(=O)NO)c2ccc([N+](=O)[O-])cc2)cc(OC)c1` [Example 9, (2Z)-3-(3,5-Dimethoxyphenyl)-2-(4-nitrophenyl)-N-[6-(hydroxyamino)-6-oxohexyl]acrylamide]: the GI50 in assay [1] amounted to 31 µM; with NCIH 460 cells, 45 µM; with HCT 116 cells, 20 µM; with MDAMB231/U251 [3] it was 28 µM. The CC50 in the assay on MDAMB231/U251 [2] came to 90 µM; with NCIH 460 cells, 100 µM; with HCT 116 cells it was 95 µM. Further, in assay [4], the “HDAC Inhibition 1 μM” value is 65.5. Moreover, in assay [4], the “HDAC Inhibition 10 μM” value was 98.28. The molecule further gave a half-inhibitory concentration (IC50) in assay [4] of 0.7 µM.
For `O=C(CCCCCNC(=O)/C(=C\c1ccc(Br)s1)c1ccc(Br)cc1)NO` [Example 13, (2Z)-3-(5-Bromo-2-thienyl)-2-(4-bromophenyl)-N-[6-(hydroxyamino)-6-oxohexyl]acrylamide], the GI50 in assay [1] was found to be 5 µM; in the assay with NCIH 460 cells, 7 µM; in the assay with HCT 116 cells it was 5 µM; in the assay with MDAMB231/U251 [3], 3 µM. In addition, the CC50 in the assay with MDAMB231/U251 [2] stood at 80 µM; in the assay on NCIH 460 cells, 75 µM; with HCT 116 cells, 70 µM. In addition, in assay [4], the “HDAC Inhibition 1 μM” value was 53.83. Moreover, the “HDAC Inhibition 10 μM” value in assay [4] is recorded as 89.18. In assay [4], this molecule showed an IC50 of 2.95 µM.
In the case of `O=C(CCCCCNC(=O)/C(=C\c1ccncc1)c1ccc(F)cc1)NO` [Example 14, (2Z)-3-(4-Pyridine)-2-(4-fluorophenyl)-N-[6-(hydroxyamino)-6-oxohexyl]acrylamide], the GI50 (in assay [1]; with NCIH 460 cells; in the assay with HCT 116 cells; with MDAMB231/U251 [3]) was over 100 µM each time. Also, the CC50 in the assay on MDAMB231/U251 [2], in the assay with NCIH 460 cells and with HCT 116 cells was over 100 µM throughout. In addition, the “HDAC Inhibition 1 μM” value in assay [4] was determined as 21.1. For the same molecule, the “HDAC Inhibition 10 μM” value in assay [4] is 35.4.
Turning to `O=C(CCCCCNC(=O)/C(=C\c1ccncc1)c1ccc(F)cc1)Nc1ccc(O)cc1[N+](=O)[O-]` [Example 15], the GI50 (in assay [1]; in the assay on NCIH 460 cells; in the assay with HCT 116 cells; in the assay on MDAMB231/U251 [3]) was over 100 µM each time. Also, the CC50 in the assay on MDAMB231/U251 [2], with NCIH 460 cells and with HCT 116 cells was over 100 µM each time. Besides, the “HDAC Inhibition 1 μM” value in assay [4] came out at 1.7. Further, the “HDAC Inhibition 10 μM” value in assay [4] is given as 4.
In the case of `CSc1ccc(/C=C(\C(=O)NCCCCCC(=O)NO)c2ccc(F)cc2)cc1` [Example 16, (2Z)-3-(4-Thiomethylphenyl)-2-(4-fluorophenyl)-N-[6-(hydroxyamine)-6-oxohexyl]acrylamide], the GI50 in assay [1] amounted to 0.7 µM; in the assay with NCIH 460 cells it was 0.01 µM; in the assay on HCT 116 cells, 1.9 µM; in the assay on MDAMB231/U251 [3], 0.15 µM. In addition, the results for the CC50 in the assay with MDAMB231/U251 [2], in the assay with NCIH 460 cells and in the assay with HCT 116 cells were 90 µM, 24 µM and 32 µM, respectively. In assay [4], the “HDAC Inhibition 1 μM” value amounted to 68. Moreover, in assay [4], the “HDAC Inhibition 10 μM” value stood at 83. In assay [4], this molecule displayed an IC50 of 0.061 µM.
